Test results published in ChEMBL document CHEMBL1201862, “PubChem BioAssay data set” (2004).
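Five compound concentrations were applied to cells in 96-well plates for 48 hours; endpoints were derived by simple linear interpolation of the resulting dose-response curve. The concentration for 50% growth inhibition is given as GI50.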 The source made the active and inactive calls. Cut-off read from the data, not from the text of the source: active = GI50 up to about 1.1 µM and inactive = higher.

Assays:
Experiment in all cases: NCI anticancer screen, dose series, 48 h
TK-10 = test system: TK-10
RPMI-8226 = test system: RPMI-8226
OVCAR-8 = test system: OVCAR-8
HCT-15 = test system: HCT-15
OVCAR-3 = test system: OVCAR-3
A549 = test system: A549
HL-60 = test system: HL-60
DU-145 = test system: DU-145
HOP-92 = test system: HOP-92
SK-MEL-28 = test system: SK-MEL-28
CAKI-1 = test system: CAKI-1
HCC 2998 = test system: HCC 2998
K562 = test system: K562
LOX IMVI = test system: LOX IMVI
MCF7 = test system: MCF7
UO-31 = test system: UO-31
SF-295 = test system: SF-295
T47D = test system: T47D
U-251 = test system: U-251

| Compound | GI50 (TK-10) | GI50 (RPMI-8226) | GI50 (OVCAR-8) | GI50 (HCT-15) [µM] | GI50 (OVCAR-3) | GI50 (A549) | GI50 (HL-60) | GI50 (DU-145) | GI50 (HOP-92) | GI50 (SK-MEL-28) | GI50 (CAKI-1) | GI50 (HCC 2998) | GI50 (K562) | GI50 (LOX IMVI) | GI50 (MCF7) | GI50 (UO-31) | GI50 (SF-295) | GI50 (T47D) | GI50 (U-251) |
| --- | --- | --- | --- | --- | --- | --- | --- | --- | --- | --- | --- | --- | --- | --- | --- | --- | --- | --- | --- |
| COc1ccc2nc3cc(Cl)ccc3c(NCCCNCCCNc3c4ccc(Cl)cc4nc4ccc(OC)cc34)c2c1 | 0.0741 µM (active) | 0.0826 µM (active) | < 0.01 µM (active) | 0.0174 | 0.162 µM (active) | 0.0132 µM (active) | 0.0278 µM (active) | 0.0373 µM (active) | 0.0719 µM (active) | 0.133 µM (active) | 0.0156 µM (active) | 0.0178 µM (active) | < 0.01 µM (active) | < 0.01 µM (active) | 0.012 µM (active) | < 0.0236 µM (active) | < 0.01 µM (active) | 0.0625 µM (active) | 0.0137 µM (active) |
| OC1[C@@H]2[C@@H](O)CCCN2C[C@@H](O)[C@H]1O (some centres undefined) | > 100 µM (inactive) | > 100 µM (inactive) | > 100 µM (inactive) | > 100 | > 100 µM (inactive) | > 100 µM (inactive) | > 100 µM (inactive) | > 100 µM (inactive) | > 100 µM (inactive) | > 100 µM (inactive) | > 100 µM (inactive) | > 100 µM (inactive) | > 100 µM (inactive) | > 100 µM (inactive) | > 100 µM (inactive) | > 100 µM (inactive) | > 100 µM (inactive) | > 100 µM (inactive) | > 100 µM (inactive) |
| BrCCC[P+](c1ccccc1)(c1ccccc1)c1ccccc1 | 80.9 µM (inactive) | 0.615 µM (active) | 12.4 µM (inactive) | > 100 | 3.44 µM (inactive) | 25.6 µM (inactive) | 1.18 µM (inactive) | 32.7 µM (inactive) | 8 µM (inactive) | 19 µM (inactive) | > 100 µM (inactive) | > 68.4 µM (inactive) | 3.16 µM (inactive) | 0.736 µM (active) | 6.22 µM (inactive) | > 100 µM (inactive) | 40.8 µM (inactive) | 5.85 µM (inactive) | 6.32 µM (inactive) |
| Oc1ccc(/C=C/c2ccc3cccc(O)c3n2)cc1O | 9.31 µM (inactive) | 0.692 µM (active) | 5.86 µM (inactive) | 3.29 | 10.9 µM (inactive) | 4.23 µM (inactive) | 1.96 µM (inactive) | 2.79 µM (inactive) | 15.9 µM (inactive) | 13 µM (inactive) | 4.98 µM (inactive) | 10.8 µM (inactive) | 3.69 µM (inactive) | 4.48 µM (inactive) | 2.42 µM (inactive) | 2.74 µM (inactive) | 8.17 µM (inactive) | 1.75 µM (inactive) | 4.2 µM (inactive) |
| O=c1c2cc(I)ccc2nc(Sc2ncccc2[N+](=O)[O-])n1Cc1ccccc1 | 37.2 µM (inactive) | 19.1 µM (inactive) | 31 µM (inactive) | 19.3 | 22 µM (inactive) | 28 µM (inactive) | 0.122 µM (active) | 22.5 µM (inactive) | 5.33 µM (inactive) | > 100 µM (inactive) | 25.8 µM (inactive) | 26.7 µM (inactive) | 38.5 µM (inactive) | 34.3 µM (inactive) | 18.3 µM (inactive) | 14.3 µM (inactive) | 60 µM (inactive) | 26.3 µM (inactive) | 35.2 µM (inactive) |
| CC(=O)NC1CCC(NC(=O)OC(C)(C)C)C(NC(=O)OC(C)(C)C)C1 (centres undefined) | > 100 µM (inactive) | > 100 µM (inactive) | > 100 µM (inactive) | > 100 | > 100 µM (inactive) | > 100 µM (inactive) | > 100 µM (inactive) | > 100 µM (inactive) | > 100 µM (inactive) | > 100 µM (inactive) | > 100 µM (inactive) | > 100 µM (inactive) | > 100 µM (inactive) | > 100 µM (inactive) | > 100 µM (inactive) | > 100 µM (inactive) | > 100 µM (inactive) | > 100 µM (inactive) | > 100 µM (inactive) |
